The record followed here is publication PMC3966265, “Phosphorylation of Arabidopsis transketolase at Ser^428 provides a potential paradigm for the metabolic control of chloroplast carbon metabolism” (Biochemical Journal, 2014).

Holding throughout (format): biochemical
Assay [1] has as its target T1, AtTKL1 (Arabidopsis thaliana, UniProt Q8RWV0).
T1 construct: gene TKL-1; mature form lacking N-terminal 67 residues (chloroplast-targeting peptide); N-terminal intein tag cleaved; E. coli ER2566; 73 kDa; homodimer
T1 sequence (Q8RWV0 68-741): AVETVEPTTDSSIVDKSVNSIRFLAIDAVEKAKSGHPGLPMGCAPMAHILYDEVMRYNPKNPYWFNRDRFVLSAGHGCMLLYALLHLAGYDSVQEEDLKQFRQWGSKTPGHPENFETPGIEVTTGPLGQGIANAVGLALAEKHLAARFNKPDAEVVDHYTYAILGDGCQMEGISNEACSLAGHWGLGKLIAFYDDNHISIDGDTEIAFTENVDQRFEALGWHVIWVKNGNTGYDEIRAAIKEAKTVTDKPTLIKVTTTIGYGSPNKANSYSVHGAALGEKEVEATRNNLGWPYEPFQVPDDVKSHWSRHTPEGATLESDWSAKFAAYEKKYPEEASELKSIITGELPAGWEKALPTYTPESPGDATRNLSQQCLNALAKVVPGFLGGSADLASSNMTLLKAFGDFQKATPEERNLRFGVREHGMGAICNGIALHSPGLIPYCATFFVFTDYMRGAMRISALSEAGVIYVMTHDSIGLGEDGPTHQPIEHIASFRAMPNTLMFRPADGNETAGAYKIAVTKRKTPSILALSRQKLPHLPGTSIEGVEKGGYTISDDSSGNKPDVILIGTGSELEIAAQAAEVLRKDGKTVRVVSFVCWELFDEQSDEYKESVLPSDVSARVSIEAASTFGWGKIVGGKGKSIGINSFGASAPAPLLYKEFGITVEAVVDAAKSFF
The assay can be described thus: coupled NAD reduction assay with E. coli E4PDH, A340. The conditions noted are these: 2 mM G3P; 0.1 mM TPP; 15 mM MgCl2; 5 mM CaCl2; pH 7.2 and 8.0; 30 °C.

Assay [2] deals with T2, AtTKL1 (Arabidopsis thaliana, UniProt Q8RWV0, S428D).
T2 construct: gene TKL-1; mature form lacking N-terminal 67 residues (chloroplast-targeting peptide); N-terminal intein tag cleaved; E. coli ER2566; 73 kDa; homodimer
Described as above. The settings on record: phosphomimetic mutant; 2 mM G3P; 0.1 mM TPP; 15 mM MgCl2; 5 mM CaCl2; pH 7.2 and 8.0; 30 °C.

For the next assay, the target named is T3, cpCKII (Arabidopsis thaliana, UniProt O64816).
T3 construct: gene CKA4; mature form lacking N-terminal 85 residues; N-terminal GST fusion (pGEX4-T1) kept; E. coli
T3 sequence (O64816 86-432): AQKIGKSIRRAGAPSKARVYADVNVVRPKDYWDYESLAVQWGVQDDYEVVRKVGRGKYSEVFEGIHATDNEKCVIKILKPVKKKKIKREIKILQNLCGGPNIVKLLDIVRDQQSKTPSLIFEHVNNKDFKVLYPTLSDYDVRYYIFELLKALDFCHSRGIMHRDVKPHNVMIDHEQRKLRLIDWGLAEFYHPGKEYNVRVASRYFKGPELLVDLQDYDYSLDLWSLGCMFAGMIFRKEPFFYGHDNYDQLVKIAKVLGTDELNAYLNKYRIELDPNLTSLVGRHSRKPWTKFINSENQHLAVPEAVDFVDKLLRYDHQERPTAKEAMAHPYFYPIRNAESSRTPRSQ
Put plainly: […] phosphorylation of recombinant AtTKL1, SDS/PAGE autoradiogram. The conditions noted are these: labelled compound; 10 mM MgCl2; pH 7.6; 22 °C; with calcium or EGTA.

T2 sequence (Q8RWV0 68-741 S428D): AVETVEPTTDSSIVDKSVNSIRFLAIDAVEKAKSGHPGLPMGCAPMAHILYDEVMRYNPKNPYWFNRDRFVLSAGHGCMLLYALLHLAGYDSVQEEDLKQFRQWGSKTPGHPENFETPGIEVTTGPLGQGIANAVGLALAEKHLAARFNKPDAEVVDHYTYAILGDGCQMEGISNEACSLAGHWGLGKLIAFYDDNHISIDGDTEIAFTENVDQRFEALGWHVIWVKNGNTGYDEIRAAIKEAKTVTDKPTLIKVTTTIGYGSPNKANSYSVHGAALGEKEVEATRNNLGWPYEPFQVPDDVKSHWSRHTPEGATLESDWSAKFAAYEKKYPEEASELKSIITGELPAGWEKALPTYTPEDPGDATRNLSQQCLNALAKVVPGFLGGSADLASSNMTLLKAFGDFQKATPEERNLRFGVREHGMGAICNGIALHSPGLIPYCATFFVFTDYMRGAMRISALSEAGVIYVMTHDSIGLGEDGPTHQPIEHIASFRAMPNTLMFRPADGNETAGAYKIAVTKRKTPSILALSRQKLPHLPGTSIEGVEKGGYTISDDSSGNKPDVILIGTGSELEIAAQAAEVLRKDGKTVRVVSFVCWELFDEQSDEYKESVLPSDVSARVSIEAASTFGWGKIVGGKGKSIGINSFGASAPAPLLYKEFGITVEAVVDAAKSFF

`O=P(O)(O)OC[C@H]1OC(O)(CO)[C@@H](O)[C@@H]1O` (stereo partly shown) [F6P]: the KmF6P entry at AtTKL1 [1] was “the wild-type enzyme had higher KmF6P and VmaxF6P values”; on AtTKL1 [2], “higher KmF6P and VmaxF6P values compared with the phosphomimetic mutant”. As for `Nc1ncnc2c1ncn2[C@@H]1O[C@H](COP(=O)(O)OP(=O)(O)OP(=O)(O)O)[C@@H](O)[C@H]1O` [ATP], the “32P phosphorylation of recombinant AtTKL1, SDS/PAGE autoradiogram” value at cpCKII was “cpCKII was able to phosphorylate recombinant AtTKL1 (Figure 2F, arrowheads)”. With `Nc1nc2c(ncn2[C@@H]2O[C@H](COP(=O)(O)OP(=O)(O)OP(=O)(O)O)[C@@H](O)[C@H]2O)c(=O)[nH]1` [GTP], the “32P phosphorylation of recombinant AtTKL1, SDS/PAGE autoradiogram” value on cpCKII is listed as “recombinant cpCKII was able to utilize GTP”.
